Measured values as given in patent publication EP0596057B1, “QUINUCLIDINE DERIVATIVES AS SQUALENE SYNTHASE INHIBITORS” (priority 1992, dated 1993).

Tests used:
Squalene synthase = target: T1, Squalene synthase (Rattus norvegicus, UniProt Q02769); test: Inhibition of Squalene synthase (formation of squalene from tritiated farnesyl pyrophosphate, rat liver microsomal protein); type: biochemical; conditions: substrate 1-[3H]-farnesyl pyrophosphate 20µM, 37°C, 15 minutes, read-out: IC50 (concentration which results in a 50% inhibition of squalene production)
T1 construct: from tissue; host or cells: rat liver microsomes
T1 sequence (Q02769 1-416): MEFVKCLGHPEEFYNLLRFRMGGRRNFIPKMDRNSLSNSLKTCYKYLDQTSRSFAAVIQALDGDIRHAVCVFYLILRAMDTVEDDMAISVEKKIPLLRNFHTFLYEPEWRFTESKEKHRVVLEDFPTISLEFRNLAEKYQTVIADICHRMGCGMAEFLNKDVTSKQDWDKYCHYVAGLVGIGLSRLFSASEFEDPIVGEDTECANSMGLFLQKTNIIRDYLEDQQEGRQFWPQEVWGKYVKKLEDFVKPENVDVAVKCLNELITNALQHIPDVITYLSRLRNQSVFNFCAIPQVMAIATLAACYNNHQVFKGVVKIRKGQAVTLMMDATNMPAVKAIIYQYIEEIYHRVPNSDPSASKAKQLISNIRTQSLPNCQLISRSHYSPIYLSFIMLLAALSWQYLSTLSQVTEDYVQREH
Protocol: In this test, the ability of a compound to prevent the formation of squalene from a radioactive substrate (tritiated farnesyl pyrophosphate) is assessed.
The test compound is incubated at a concentration of 25 micromolar in 200µl of a buffered solution containing potassium phosphate (50mM), MgCl2 (4.95mM), KF (9.9mM), NADPH (0.9mM) and rat liver microsomal protein (20µg). Rat liver microsomes are prepared by the method described in published European Patent Application No. 324,421 and stored in liquid nitrogen prior to assay. Assay vials are kept at 37°C throughout the incubation.
The reaction is started with the addition of the substrate (1-[^3H]-farnesyl pyrophosphate), final concentration 20µM, and stopped after 15 minutes reaction time with the addition of 50µl of 4% KOH. The reaction products are separated from unreacted substrate after application to a C-18 octadecyl lccBond column (Analytichem Int product No. 617101). An aqueous fraction is eluted with 250µl of 0.1M KOH. Squalene is then eluted with 1.0 ml 10% ethylacetate in hexane and radioactivity determined. The difference in radioactivity in the presence and absence of the test compound is used to determine the level of inhibition. […]

[1] = test system: de novo hepatic cholesterol synthesis; test: Acute rat cholesterol synthesis assay (de novo hepatic cholesterol synthesis from 14C-acetate); type: in vivo; conditions: female rats, [2-14C]-acetate ip 1 hour after compound, plasma sampled after a further hour, route not stated
Protocol: This is an acute in vivo test in the rat to measure de novo hepatic cholesterol synthesis from exogenously administered ^14C-acetate.
Female rats (35 - 55 g) are housed in reverse lighting conditions (red light from 0200h - 1400h) for a period of about 2 weeks prior to test. Animals are allowed free access to chow and drinking water throughout this period. At test, animals should weigh 125 - 150 g.
Test compounds may be administered by oral gavage, dissolved or suspended in 0.5% polysorbate, or by ip or iv dosing. Control animals receive vehicle alone. After 1 hour the rats are injected ip with 25µCi [2-^14C]-acetate (NEN DUPONT. specific activity, 45-60mCi/mmol NEC-085H, or AMERSHAM specific activity, 50-60mCi/mmol CFA 14) in a volume of 0.25 ml saline (100µCi/ml). After a further hour a blood sample was obtained from the abdominal vena cava under terminal halothane anaesthesia.
1ml of plasma is lyophilised and then saponified in 2ml ethanolic KOH (1 part 33% KOH, 9 parts ethanol) at 75°C for 2 hours. After addition of an equal quantity of water, non-saponifiable lipids are extracted with […] 5ml volumes of hexane. The hexane extracts are evaporated to dryness and the residues dissolved in ethanol to determine cholesterol specific radioactivity. ED50 values can be determined in the standard way.

Row | SMILES | IC50 (Squalene synthase) [nM] | ED50 [1] [mg/kg]
1 | OC1(c2ccc(COc3ccccc3)cc2)CN2CCC1CC2 (centres unmarked) [Example 2, 3-(4-phenoxymethylphenyl)-quinuclidin-3-ol] | 30 | –
2 | OC1(c2ccc(C#Cc3ccccc3)cc2)CN2CCC1CC2 (centres unmarked) [Example 4, 3-(4-phenylethyn-2-ylphenyl)quinuclidin-3-ol] | – | 29
